From EP0297159A1, “[N-Acyl, 1,7-Di-Aline] calcitonins, method for their preparation, pharmaceutical compositions and use” (Armour Pharmaceutical Company, priority 1987, dated 1989)
Where a SMILES comes first, the peptide text is derived from it. The star is where a group is joined. Propionyl = CCC(=O)*

System: serum calcium concentration
Settings: rat, in vivo, sc
Procedure: Rats were divided into four groups of seven animals, and each group was assigned at random to a dose of standard or test solution. Low and high doses were chosen from the linear portion of the dose-response curve. For the salmon calcitonin standard, the values were 0.7 and 2.1 mcg. peptide/100 g. body weight (BW). This dose approximates 3 and 9 MU/100 g. BW. Peptides were given by subcutaneous injection (0.2 ml./100 g. BW) and blood was withdrawn 1 hour later for serum calcium determination. Sera are processed and analyzed within two hours of collection.

Compound: CCC(=O)N[C@@H](C)C(=O)N[C@@H](CO)C(=O)N[C@@H](CC(N)=O)C(=O)N[C@@H](CC(C)C)C(=O)N[C@@H](CO)C(=O)N[C@H](C(=O)N[C@@H](C)C(=O)N[C@H](C(=O)N[C@@H](CC(C)C)C(=O)NCC(=O)N[C@@H](CCCCN)C(=O)N[C@@H](CC(C)C)C(=O)N[C@@H](CO)C(=O)N[C@@H](CCC(N)=O)C(=O)N[C@@H](CCC(=O)O)C(=O)N[C@@H](CC(C)C)C(=O)N[C@@H](Cc1c[nH]cn1)C(=O)N[C@@H](CCCCN)C(=O)N[C@@H](CC(C)C)C(=O)N[C@@H](CCC(N)=O)C(=O)N[C@H](C(=O)N[C@@H](Cc1ccc(O)cc1)C(=O)N1CCC[C@H]1C(=O)N[C@@H](CCCNC(=N)N)C(=O)N[C@H](C(=O)N[C@@H](CC(N)=O)C(=O)N[C@H](C(=O)NCC(=O)N[C@@H](CO)C(=O)NCC(=O)N[C@H](C(=O)N1CCC[C@H]1C(N)=O)[C@@H](C)O)[C@@H](C)O)[C@@H](C)O)[C@@H](C)O)C(C)C)[C@@H](C)O [[N^α-Propionyl-Di-Ala^1,7]SCT, [N^α-Propionyl, 1,7-Di-Alanine]salmon calcitonin] (Propionyl-ASNLSTAVLGKLSQELHKLQTYPRTNTGSGTP-NH2)
- biological potency: 5450 IU/mg
